Results taken from patent US20150150893A1, “ANDROGRAPHOLIDE ANALOGS AND THEIR USE FOR MEDICATION” (LIAONING LIFENG SCIENTIFIC & TECHNOLOGY DEVELOPMENT COMPANY …, priority 2012, published 2015).
Read-outs that look alike come from different tables or passages of the source.

Columns and labels:
Type in all cases: cell-based
[1] = system: Japanese encepahalitis virus; conditions: read-out: In-Vitro Antiviral Screening Result (EC50) C
[2] = system: Rift Valley fever virus; experiment: microbe, parasite or virus in culture
[3] = system: SARS coronavirus; experiment: microbe, parasite or virus in culture; conditions: Severe acute respiratory syndrome coronavirus
[4] = system: many virus; experiment: Antivirus studies in vitro, summary over the virus panel; conditions: read-out: EC50 against many virus
Method: compounds were diluted to 20 mg/mL in DMSO then prepared in for log 10 dilutions of 100 μg/mL down to 0.1 μg/mL) in MEM solution with 50 μg/mL gentamicin and 2% FBS. Each dilution was added to 5 wells of a 96-well plate with 80-100% confluent cells. Three wells of each dilution were infected with virus, and two wells remained uninfected as toxicity controls. The multiplicity of infection (MOI) was as low as possible to achieve CPE within 3-5 days of incubation. A known active compound was tested in parallel as a control. After untreated virus control wells reached maximum cytopathic effect (CPE), each well was scored microscopically. Plates were then stained with neutral red dye for approximately 2 hours, then supernatant dye was removed from the wells and the incorporated dye was extracted in 50:50 Sorensen citrate buffer/ethanol, then the optical density was read on a spectrophotometer.

[5] = system: Venezuelan equine encephalitis virus; experiment: microbe, parasite or virus in culture; conditions: read-out: In-Vitro Antiviral Screening Result (EC50) G
[6] = system: Influenza A virus H1N1; experiment: microbe, parasite or virus in culture; conditions: H1N1, read-out: In-Vitro Antiviral Screening Result (EC50) H
[7] = read-out: In-Vitro Antiviral Screening Result (EC50) E
[8] = read-out: In-Vitro Antiviral Screening Result (EC50) F

| Compound | EC50 [1] | EC50 [2, 7] | EC50 [3, 8] | EC50 [4] | EC50 [5] | EC50 [6] | EC50 ([2]; read-out: EC50 against virus E) | EC50 ([3]; read-out: EC50 against virus F) |
| --- | --- | --- | --- | --- | --- | --- | --- | --- |
| CN1C(=O)CN2C=C(/C=C3C=C(/C=C/C4C5(CCC6[C@]4(C)CC[C@@H](O)[C@@]6(C)CO)CO5)C(=O)O\3)C=CC21 (stereo partly shown) [Example 68, 11,12-dedihydro-14-deoxy-(E)-15-((1-methyl-2-oxo-1,2,3,8a-tetrahydroimidazo[1,2-a]pyridin-6-yl)methylene)-8,17-epoxyandrographolide] | < 50 µg/mL | > 100 µg/mL | < 50 µg/mL | < 50 µg/mL | < 50 µg/mL | > 100 µg/mL |  |  |
| C=C1C(N2CCOCC2)CC2[C@](C)(CC[C@@H](O)[C@@]2(C)CO)C1/C=C/C1=CC(=C\c2ccc(N(C)C)cc2)/OC1=O (stereo partly shown) [Example 124] | < 50 µg/mL | < 50 µg/mL | < 50 µg/mL | < 50 µg/mL | < 50 µg/mL | < 100 µg/mL |  |  |
| CN(C)c1ccc(/C=C2C=C(/C=C/C3C4(CO4)C(N4CCOCC4)CC4[C@]3(C)CC[C@@H](O)[C@@]4(C)CO)C(=O)O\2)cc1 (stereo partly shown) [Example 76, 7-(4-morpholino)-11,12-dedihydro-14-deoxy-15-(4-(dimethylamino)benzylidene)andrographolide] | > 100 µg/mL | < 100 µg/mL | < 50 µg/mL | < 50 µg/mL | > 100 µg/mL | < 100 µg/mL |  |  |
| CC(NC1CC2[C@](C)(CC[C@@H](O)[C@@]2(C)CO)C(/C=C/C2=CC(=C\c3cnc(N4CCN(C)CC4)nc3)/OC2=O)C12CO2)C(=O)NC1=NCC=N1 (stereo partly shown) [Example 23, 7-((2-((4H-imidazol-2-yl)amino)-1-oxopropan-2-yl)amino)-11,12-dedihydro-14-deoxy-(E)-15-((2-(4-methylpiperazin-1-yl)pyrimidin-5-yl)methylene)-8,17-epoxyandrographolide] | < 50 µg/mL | < 50 µg/mL | < 50 µg/mL | < 50 µg/mL | < 50 µg/mL | > 100 µg/mL |  |  |
| C[C@]12CC[C@@H](O)[C@@](C)(CO)C1CCC1(CO1)C2/C=C/C1=CC(=C\c2cnc(N)[nH]c2=O)/OC1=O (stereo partly shown) [Example 38, 11,12-dedihydro-14-deoxy-15-(2-amino-5-oxygen-3H-pyrimidine-5-ylmethylene)-8,17-epoxyandrographolide] | < 100 µg/mL | > 100 µg/mL | < 50 µg/mL | < 50 µg/mL | < 100 µg/mL | < 100 µg/mL |  |  |
| C=C1CCC2[C@](C)(CC[C@@H](O)[C@@]2(C)CO)C1/C=C/C1=CC(=C\c2cnc(N)[nH]c2=O)/OC1=O (stereo partly shown) [Example 50, 11,12-dedihydro-14-deoxy-15-(2-amino-4-oxo-3H-pyrimidine-5-ylmethylene)andrographolide] | < 50 µg/mL | < 100 µg/mL | < 100 µg/mL | < 50 µg/mL | < 50 µg/mL | < 50 µg/mL |  |  |
| C=C1CCC2C(C)(CO)C(O)CCC2(C)C1/C=C/C1=CC(=C\c2ccc(OC3OC(CO)C(O)C(O)C3O)cc2)/OC1=O (stereo not shown) [Example 40, 11,12-dedihydro-14-deoxy-15-(4-((3,4,5-trihydroxy-6-(hydroxymethyl)tetrahydro-2H-pyran-2-yl)oxy)benzylidene)andrographolide] | < 100 µg/mL | > 100 µg/mL | < 50 µg/mL | < 50 µg/mL | > 100 µg/mL | > 100 µg/mL |  |  |
| C=C1CCC2[C@](C)(CC[C@@H](O)[C@@]2(C)CO)C1/C=C/C1=CC(=C\c2cnc(N3CCCC3CO)nc2)/OC1=O (stereo partly shown) [Example 65, 11,12-dedihydro-14-deoxy-(E)-15-((2-(2-(hydroxymethyl)pyrrolidin-1-yl)pyrimidin-5-yl)methylene)andrographolide] | > 100 µg/mL | < 50 µg/mL | < 50 µg/mL | < 50 µg/mL | < 100 µg/mL | > 100 µg/mL |  |  |
| C=C1CCC2[C@](C)(CC[C@@H](O)[C@@]2(C)CO)C1/C=C/C1=CC(=C\c2ccc(N(C)C)cc2)/OC1=O (stereo partly shown) [Example 37, 11,12-dedihydro-14-deoxy-15-(4-(dimethylamino)benzylidene)andrographolide] | < 50 µg/mL | < 50 µg/mL | < 50 µg/mL |  | < 50 µg/mL | < 50 µg/mL | < 1 µg/mL | < 1 µg/mL |
| C=C1CCC2[C@](C)(CC[C@@H](O)[C@@]2(C)CO)C1/C=C/C1=CC(=C\c2cn(C)c3nc(N)ncc23)/OC1=O (stereo partly shown) [Example 46, 11,12-dedihydro-14-deoxy-(E)-15-((2-amino-7-methyl-7H-pyrrolo[2,3-d]pyrimidin-5-yl)methylene)andrographolide] | < 100 µg/mL | < 50 µg/mL | < 50 µg/mL | < 50 µg/mL | < 100 µg/mL | < 100 µg/mL |  |  |
| C[C@]12CC[C@@H](O)[C@@](C)(CO)C1CCC1(CO1)C2/C=C/C1=CC(=C\c2ccc(-n3ccnc3)cc2)/OC1=O (stereo partly shown) [Example 77, 11,12-dedihydro-14-deoxy-(E)-15-(4-(1H-imidazol-1-yl)benzylidene)-8,17-epoxyandrographolide] | < 100 µg/mL | < 50 µg/mL | < 100 µg/mL | < 50 µg/mL | > 100 µg/mL | < 100 µg/mL |  |  |
| C=C1CCC2[C@](C)(CC[C@@H](O)[C@@]2(C)CO)C1/C=C/C1=CC(=C\c2ccc(-n3ccnc3)cc2)/OC1=O (stereo partly shown) [Example 79, 11,12-dedihydro-14-deoxy-(E)-15-(4-(1H-imidazol-1-yl)benzylidene)andrographolide] | < 50 µg/mL | < 50 µg/mL | < 50 µg/mL | < 50 µg/mL | < 50 µg/mL | < 50 µg/mL |  |  |
| C=C1CCC2C(C)(CO)C(O)CCC2(C)C1/C=C/C1=CC(=C\c2ccc(Cl)cc2Cl)/OC1=O (stereo not shown) [Example 35, 11,12-dedihydro-14-deoxy-(E)-15-(2,4-dichlorobenzylidene)andrographolide] | < 50 µg/mL | > 100 µg/mL | < 50 µg/mL | < 50 µg/mL | < 50 µg/mL | < 50 µg/mL |  |  |
| COc1cc(/C=C2C=C(/C=C/C3C4(CCC5[C@]3(C)CC[C@@H](O)[C@@]5(C)CO)CO4)C(=O)O\2)cc([N+](=O)[O-])c1O (stereo partly shown) [Example 41, 11,12-dedihydro-14-deoxy-(E)-15-(4-hydroxy-3-methoxy-5-nitrobenzylidene)-8,17-epoxyandrographolide] | > 100 µg/mL | < 50 µg/mL | < 100 µg/mL | < 50 µg/mL | > 100 µg/mL | < 100 µg/mL |  |  |
| CN1CCN(c2ccc(/C=C3C=C(/C=C/C4C5(CCC6[C@]4(C)CC[C@@H](O)[C@@]6(C)CO)CO5)C(=O)O\3)cc2)CC1 (stereo partly shown) [Example 71, 11,12-dedihydro-14-deoxy-(E)-15-(4-(4-methylpiperazin-1-yl)benzylidene)-8,17-epoxyandrographolide] | < 50 µg/mL | > 100 µg/mL | < 100 µg/mL | < 50 µg/mL | < 50 µg/mL | < 100 µg/mL |  |  |
| Cn1cc(/C=C2C=C(/C=C/C3C4(CCC5[C@]3(C)CC[C@@H](O)[C@@]5(C)CO)CO4)C(=O)O\2)c2cnc(N)nc21 (stereo partly shown) [Example 59, 11,12-dedihydro-14-deoxy-(E)-15-((2-amino-7-methyl-7H-pyrrolo[2,3-d]pyrimidin-5-yl)methylene)-8,17-epoxyandrographolide] | > 100 µg/mL | < 50 µg/mL | < 50 µg/mL | < 50 µg/mL | > 100 µg/mL | < 100 µg/mL |  |  |
| C=C1C(NC(C)C(=O)NC2=NCC=N2)CC2[C@](C)(CC[C@@H](O)[C@@]2(C)CO)C1/C=C/C1=CC(=C\c2ccc(N(C)C)cc2)/OC1=O (stereo partly shown) [Example 188] | < 100 µg/mL | < 100 µg/mL | < 50 µg/mL | < 50 µg/mL | < 100 µg/mL | > 100 µg/mL |  |  |
| C=C1CCC2C(C)(CO)C(O)CCC2(C)C1CC(Nc1cccc(Cl)c1)C1=CCOC1=O (stereo not shown) [Example 53, 12-((3-chlorophenyl)amino)-14-deoxyandrographolide] | < 50 µg/mL | < 10 µg/mL | < 50 µg/mL |  | < 50 µg/mL | < 50 µg/mL | < 1 µg/mL | < 1 µg/mL |
| C=C1CCC2C3(C)COC(c4ccc(OC5OC(CO)C(O)C(O)C5O)cc4)OC3CCC2(C)C1C/C=C1/C(=O)OCC1O (stereo not shown) [Example 45, (E)-3-(2-(6a,10b-dimethyl-8-methylene-3-(4-((3,4,5-trihydroxy-6-(hydroxymethyl)tetrahydro-2H-pyran-2-yl)oxy)phenyl)decahydro-1H-naphtho[2,1-d][1,3]dioxin-7-yl)ethylidene)-4-hydroxydihydrofuran-2(3H)-one] | < 50 µg/mL | < 50 µg/mL | < 50 µg/mL | < 50 µg/mL | < 50 µg/mL | > 100 µg/mL |  |  |
| C=C1C(N2CCOCC2)CC2[C@](C)(CC[C@@H](O)[C@@]2(C)CO)C1/C=C/C1=CCOC1=O (stereo partly shown) [Example 83] | < 50 µg/mL | < 50 µg/mL | < 50 µg/mL |  | < 50 µg/mL | < 50 µg/mL | < 1 µg/mL | < 1 µg/mL |
| C=C1CCC2C(C)(CO)C(O)CCC2(C)C1CC(NC12CN3CN(CN(C3)C1)C2)C1=CCOC1=O (stereo not shown) [Example 57, 12-((1s,3s,5s)-1,3,5-triazaadamantan-7-ylamino)-14-deoxyandrographolide] | < 50 µg/mL | < 50 µg/mL | < 50 µg/mL |  | < 50 µg/mL | < 50 µg/mL | < 1 µg/mL | < 1 µg/mL |
